From US20140079836A1, “METHODS AND COMPOSITIONS FOR ALTERING HEALTH, WELLBEING, AND LIFESPAN” (LifeSpan Extension, LLC, priority 2008, published 2014)

Test system: Custom Array II Genes
Experiment: Custom Array II gene expression, antioxidant alone or + UVB
Assay type: cell-based

COC1=C(OC)C(=O)C(CCCCCCCCCCO)=C(C)C1=O [Idebenone, 6-(10-hydroxydecyl)-2,3-dimethoxy-5-methyl-1,4-benzoquin-one]
1.2: CCL4L1 (NM_001001435) Expression (+ UVB) | IMMP1L (NM_144981) Expression (+ UVB) | NOS1 (NM_000620) Expression (+ UVB) | PARP2 (NM_005484) Expression (+ UVB) | PDGFRL (NM_006207) Expression (+ UVB) | POT1 (NM_015450) Expression (+ UVB) | RTC (SA_00104) Expression (+ UVB) | BCL2 (NM_000633) Expression (Alone) | HGDC (SA_00105) Expression (Alone) | HPRT1 (NM_000194) Expression (Alone) | NADSYN1 (NM_018161) Expression (Alone) | TIMP3 (NM_000362) Expression (Alone) | UBE2S (NM_014501) Expression (Alone)
1.7: EGR2 (NM_000399) Expression (+ UVB)
1.8: HBEGF (NM_001945) Expression (+ UVB)
1.4: KIT (NM_000222) Expression (+ UVB) | CYP19A1 (NM_000103) Expression (Alone)
1.9: NOS1 (NM_000620) Expression (Alone)
−1.4: FOS (NM_005252) Expression (+ UVB) | MAPK14 (NM_001315) Expression (+ UVB) | KRAS (NM_004985) Expression (Alone) | SHC1 (NM_003029) Expression (Alone)
−1.6: IFI44 (NM_006417) Expression (Alone)
1.5: COX1 (NP_536845) Expression (+ UVB) | IL6 (NM_000600) Expression (+ UVB) | NEIL1 (NM_024608) Expression (Alone)
−1.8: HSPA6 (NM_002155) Expression (+ UVB) | TOMM40 (NM_006114) Expression (+ UVB)
2.3: IL33 (NM_033439) Expression (+ UVB)
−1.7: BMP2 (NM_001200) Expression (+ UVB) | GCH1 (NM_000161) Expression (+ UVB) | VEGFA (NM_003376) Expression (Alone)
1.0: BCL2L1 (NM_138578) Expression (+ UVB) | CASP9 (NM_001229) Expression (+ UVB) | CRP (NM_000567) Expression (+ UVB) | CYP19A1 (NM_000103) Expression (+ UVB) | DDC (NM_000790) Expression (+ UVB) | EGF (NM_001963) Expression (+ UVB) | HLA-DRA (NM_019111) Expression (+ UVB) | HMOX1 (NM_002133) Expression (+ UVB) | IFI44 (NM_006417) Expression (+ UVB) | IGF2 (NM_000612) Expression (+ UVB) | IL1A (NM_000575) Expression (+ UVB) | IL8 (NM_000584) Expression (+ UVB) | KL (NM_004795) Expression (+ UVB) | KRAS (NM_004985) Expression (+ UVB) | MMP1 (NM_002421) Expression (+ UVB) | NEIL1 (NM_024608) Expression (+ UVB) | NOS2 (NM_000625) Expression (+ UVB) | PARP1 (NM_001618) Expression (+ UVB) | PPC (SA_00103) Expression (+ UVB) | SERPINB (NM_002575) Expression (+ UVB) | SIRT4 (NM_012240) Expression (+ UVB) | SOD2 (NM_000636) Expression (+ UVB) | TPP1 (NM_000391) Expression (+ UVB) | ACTB (NM_001101) Expression (Alone) | APOE (NM_000041) Expression (Alone) | BCL2L1 (NM_138578) Expression (Alone) | CASP2 (NM_032982) Expression (Alone) | CCL4L1 (NM_001001435) Expression (Alone) | CDKN2A (NM_000077) Expression (Alone) | CLK1 (NM_004071) Expression (Alone) | COL1A1 (NM_000088) Expression (Alone) | COX1 (NP_536845) Expression (Alone) | CREBBP (NM_004380) Expression (Alone) | DDC (NM_000790) Expression (Alone) | DUSP2 (NM_004418) Expression (Alone) | EGF (NM_001963) Expression (Alone) | EGR2 (NM_000399) Expression (Alone) | FOS (NM_005252) Expression (Alone) | FOXO3 (NM_001455) Expression (Alone) | GCH1 (NM_000161) Expression (Alone) | GH1 (NM_000515) Expression (Alone) | GPX1 (NM_000581) Expression (Alone) | HBEGF (NM_001945) Expression (Alone) | HLA-DRA (NM_019111) Expression (Alone) | HSPA1L (NM_005527) Expression (Alone) | IGF2 (NM_000612) Expression (Alone) | JUN (NM_002228) Expression (Alone) | KL (NM_004795) Expression (Alone) | MAPK14 (NM_001315) Expression (Alone) | MMP1 (NM_002421) Expression (Alone) | NOS3 (NM_000603) Expression (Alone) | PARP9 (NM_031458) Expression (Alone) | PPC (SA_00103) Expression (Alone) | TERF2 (NM_005652) Expression (Alone) | TOMM40 (NM_006114) Expression (Alone)
4.7: PARP4 (NM_006437) Expression (+ UVB)
−1.2: APOE (NM_000041) Expression (+ UVB) | COL3A1 (NM_000090) Expression (+ UVB) | GADPH (NM_002046) Expression (+ UVB) | PPARG (NM_015869) Expression (+ UVB) | PPARGC1 (NM_013261) Expression (+ UVB) | RAP1A (NM_002884) Expression (+ UVB) | SIRT3 (NM_012239) Expression (+ UVB) | TGFB1 (NM_000660) Expression (+ UVB) | IL8 (NM_000584) Expression (Alone) | PTGS2 (NM_000963) Expression (Alone) | SIRT1 (NM_012238) Expression (Alone) | SOD2 (NM_000636) Expression (Alone)
−1.1: ACE (NM_000789) Expression (+ UVB) | ACTB (NM_001101) Expression (+ UVB) | CLK1 (NM_004071) Expression (+ UVB) | CREBBP (NM_004380) Expression (+ UVB) | GPX1 (NM_000581) Expression (+ UVB) | HSPA1L (NM_005527) Expression (+ UVB) | JUN (NM_002228) Expression (+ UVB) | NADSYN1 (NM_018161) Expression (+ UVB) | NFKB1 (NM_003998) Expression (+ UVB) | PARP9 (NM_031458) Expression (+ UVB) | SHC1 (NM_003029) Expression (+ UVB) | SIRT2 (NM_012237) Expression (+ UVB) | SOD1 (NM_000454) Expression (+ UVB) | TERF2 (NM_005652) Expression (+ UVB) | TIMM22 (NM_013337) Expression (+ UVB) | COL3A1 (NM_000090) Expression (Alone) | HSPA6 (NM_002155) Expression (Alone) | IL11 (NM_000641) Expression (Alone) | IL33 (NM_033439) Expression (Alone) | PDGFRL (NM_006207) Expression (Alone) | SIRT3 (NM_012239) Expression (Alone) | TGFB1 (NM_000660) Expression (Alone) | TNF (NM_000594) Expression (Alone) | TP53 (NM_000546) Expression (Alone) | TPP1 (NM_000391) Expression (Alone)
−1.3: CASP2 (NM_032982) Expression (+ UVB) | FOXO3 (NM_001455) Expression (+ UVB) | HSPA1A (NM_005345) Expression (+ UVB) | HSPA1B (NM_005346) Expression (+ UVB) | TERT (NM_198255) Expression (+ UVB) | TIMP3 (NM_000362) Expression (+ UVB) | TP53 (NM_000546) Expression (+ UVB) | UBE2S (NM_014501) Expression (+ UVB) | VEGFA (NM_003376) Expression (+ UVB) | KIT (NM_000222) Expression (Alone)
−2.6: TNF (NM_000594) Expression (+ UVB)
1.1: DUSP2 (NM_004418) Expression (+ UVB) | HGDC (SA_00105) Expression (+ UVB) | IGF1 (NM_000618) Expression (+ UVB) | IL10 (NM_000572) Expression (+ UVB) | IL11 (NM_000641) Expression (+ UVB) | PARP3 (NM_005485) Expression (+ UVB) | SIRT1 (NM_012238) Expression (+ UVB) | TEP1 (NM_007110) Expression (+ UVB) | TINF2 (NM_012461) Expression (+ UVB) | BMP2 (NM_001200) Expression (Alone) | IGF1 (NM_000618) Expression (Alone) | IL10 (NM_000572) Expression (Alone) | NOS2 (NM_000625) Expression (Alone) | PARP4 (NM_006437) Expression (Alone) | RTC (SA_00104) Expression (Alone) | S100A7 (NM_002963) Expression (Alone) | SERPINB (NM_002575) Expression (Alone) | SIRT4 (NM_012240) Expression (Alone) | TEP1 (NM_007110) Expression (Alone) | TERT (NM_198255) Expression (Alone) | TIMM22 (NM_013337) Expression (Alone) | TINF2 (NM_012461) Expression (Alone)
1.6: BCL2 (NM_000633) Expression (+ UVB)
1.3: BAX (NM_004324) Expression (+ UVB) | GH1 (NM_000515) Expression (+ UVB) | HPRT1 (NM_000194) Expression (+ UVB) | PTGS2 (NM_000963) Expression (+ UVB) | S100A7 (NM_002963) Expression (+ UVB) | BAX (NM_004324) Expression (Alone) | GADPH (NM_002046) Expression (Alone) | PARP1 (NM_001618) Expression (Alone) | PARP2 (NM_005484) Expression (Alone) | RAP1A (NM_002884) Expression (Alone)
−1.0: CDKN2A (NM_000077) Expression (+ UVB) | COL1A1 (NM_000088) Expression (+ UVB) | NOS3 (NM_000603) Expression (+ UVB) | ACE (NM_000789) Expression (Alone) | CASP9 (NM_001229) Expression (Alone) | CRP (NM_000567) Expression (Alone) | HMOX1 (NM_002133) Expression (Alone) | HSPA1A (NM_005345) Expression (Alone) | HSPA1B (NM_005346) Expression (Alone) | IL1A (NM_000575) Expression (Alone) | IL6 (NM_000600) Expression (Alone) | IMMP1L (NM_144981) Expression (Alone) | PARP3 (NM_005485) Expression (Alone) | POT1 (NM_015450) Expression (Alone) | PPARG (NM_015869) Expression (Alone) | PPARGC1 (NM_013261) Expression (Alone) | SIRT2 (NM_012237) Expression (Alone) | SOD1 (NM_000454) Expression (Alone)
−1.5: NFKB1 (NM_003998) Expression (Alone)
